Laboratory results: US4105659A, “1,2,3,4,5,6-Hexahydro-2,6-methano-3-benzazocines” (Sterling Drug Inc., priority 1964, dated 1978)
In brackets after ≈: the same amount, converted by molar mass.

Experiments:
[1] = Solubility, pH of solution and precipitation on pH adjustment or dilution; type: physicochemical
Description: A. A mixture of 8.7 g. of racemic cis 1,2,3,4,5,6-hexahydro-6,11-dimethyl-8-hydroxy-2,6-methano-3-benzazocine (which is also known as racemic cis 2'-hydroxy-5,9-dimethyl-6,7-benzomorphan), 6.0 g of 1-bromo-3-methyl-2-butene, 5.0 g. of sodium bicarbonate, and 125 ml. of N,N-dimethylformamide was stirred and refluxed for approximately 41/2 hours. The reaction mixture was then filtered, and the solid on the filter was washed with ethanol. The filtrate and the wash liquor were combined, concentrated under reduced pressure, and then extracted with chloroform. The chloroform extract was concentrated under reduced pressure to yield a syrup which weighed 15.8 g. This syrup was dissolved in 120 ml. of diethyl ether and the resulting solution was filtered to remove approximately one-half gram of a brown amorphous solid. The filtrate was extracted with a mixture of 5 ml. of concentrated hydrochloric acid and 20 ml. of water. To the extract there was added 5 ml. of concentrated ammonium hydroxide solution and ice. A pale tan syrup separated from solution and after stirring, this syrup solidified. The resulting pale tan solid was collected and dried; it weighed 10.6 g. After two recrystallizations from a mixture of methyl alcohol and water, with charcoaling, this solid weighed 8.2 g. and melted at 145°-147° C. The product thus obtained was racemic cis 1,2,3,4,5,6-hexahydro-3-(3-methyl-2-butenyl)-6,11-dimethyl-8-hydroxy-2,6-methano-3-benzazocine (Formula II: Y = --CH2 --CH=C(CH3)2; R^3 = --H), having the molecular formula C19 H27 NO. This product was soluble in a mixture of 0.35 ml. of N/2 hydrochloric acid and 0.15 ml. of water to the extent of 10 percent, the pH of the 1 percent solution being 2.80; and when the pH of the 1 percent solution was gradually raised by addition of N/10 sodium hydroxide solution, a precipitate formed at pH 5.4. When the base was converted to the hydrochloride and was then regenerated from this salt it melted at 151°-153° C. The hydrochloride of this base melted at 245°-247° C. (dec.). and the cyclohexylsulfamate of this base melted at 163°-166° C. The base formed a grayish-yellowtannate.
The racemic trans product was converted to its hydrobromide, having the molecular formula C19 H27 NO·HBr, which was obtained as white needles which melted at 240°-241° C.
The dextro trans product was converted to its hydrochloride, having the molecular formula C19 H27 NO·HCl, which was obtained as white crystals which melted at 254°-255° C.
The levo trans product was converted to its hydrochloride, having the molecular formula C19 H27 NO·HCl, which was obtained as white crystals which melted at 254°-255° C. (dec.); this hydrochloride was soluble in water to the extent of 5 percent, the pH of a 1 percent aqueous solution being 5.7, a precipitate being formed when the 1 percent aqueous solution was adjusted to 7.0 by addition of N/10 sodium hydroxide solution.
A. A mixture of 9.25 g. of racemic cis 1,2,3,4,5,6-hexahydro-6-ethyl-11-methyl-8-hydroxy-2,6-methano-3-benzazocine, 6.0 g. of 1-bromo-3-methyl-2-butene, 125 ml. of N,N-dimethylformamide, and 5.0 g. of sodium bicarbonate was stirred and refluxed for approximately 41/2 hours. The reaction mixture was then filtered, and the solid collected on the filter was washed with ethanol. The filtrate and the wash liquor were combined and concentrated under reduced pressure. To the resulting residue there was added 50 ml. of diethyl ether, and the mixture was filtered. Approximately 0.6 g. of solid was collected on the filter, and 8.2 g. of brown solid separated from the filtrate and was collected by filtration. These two crops of solid (8.8 g.) were combined, 25 ml. of methanol was added, and the mixture was boiled. Only a small portion of the solid dissolved. This mixture was mixed with 25 ml. of water and chilled. The mixture was filtered to collect 8.3 g. of pale tan solid which melted at 156°-158° C. […]

[2] = test system: analgesic effect of meperidine hydrochloride; experiment: Antagonism of meperidine analgesia, modified D'Amour-Smith test; conditions: for maximum degree of antagonism: versus 60 mg/kg. meperidine
[3] = test system: analgesic effect of morphine sulfate; experiment: Antagonism of morphine analgesia, modified D'Amour-Smith test; conditions: Rattus norvegicus, sc, read-out: dosage of antagonist which reduced the analgesic effect of morphine by approximately 50 per cent
[4] = Support of morphine addiction in stabilized morphine addicts
[5] = Clinical analgesia in human subjects; type: in vivo
Description: In human subjects, however, the compounds of Formulas I and II are valuable and effective agents for producing analgesia when administered in the general range of about 10 to 500 mg. per 70 kg. of subject weight, the dosage depending of course on the particular compound, the mode of administration, and the like. The following clinical results which were obtained in human subjects are illustrative. For oral administration the free base was used, and for parenteral (usually intramuscular) administration an aqueous solution of the lactate salt was used; the dosages are expressed in each instance in terms of milligrams of base per 70 kilograms of body weight of the human subject.

[6] = D'Amour-Smith test for analgesia in rats; type: in vivo
Description: In tests as in animals as analgesics and as antagonists of strong analgesics, the racemic, dextro, and levo forms of trans 1,2,3,4,5,6-hexahydro-3-(3-methyl-2-butenyl)-6-ethyl-11-methyl-8-hydroxy-2,6-methano-3-benzazocine described in Example 7D above gave results substantially differing from those of the corresponding cis forms and of the related compounds of this invention. Thus, in the analgesic antagonist test versus a 60 mg/kg. dose of meperidine, the maximum degree of antagonism which could be obtained for these three trans forms was: for the racemic trans form, 50 percent antagonism at 0.1 mg/kg.; for the dextro trans form, 30 percent antagonism at 1.25 mg./kg.; and for the levo trans form, 22 percent antagonism at 0.1 mg./kg.

SMILES: CC(C)=CCN1CC[C@@]2(C)c3cc(O)ccc3C[C@@H]1[C@@H]2C (relative stereo) [4A (base), racemic cis 1,2,3,4,5,6-hexahydro-3-(3-methyl-2-butenyl)-6,11-dimethyl-8-hydroxy-2,6-methano-3-benzazocine]
- pH of the 1 percent solution ([1]; 1 percent solution in dilute hydrochloric acid): 2.80
- pH at which a precipitate formed ([1]; 1 percent solution, addition of N/10 sodium hydroxide): 5.4
- solubility ([1]; dilute hydrochloric acid, mixture of 0.35 ml. of N/2 hydrochloric acid and 0.15 ml. of water, read-out: solubility in dilute hydrochloric acid): 100 mg/mL (≈ 350 mM)
- ED50 ([2]; Rattus norvegicus, sc, read-out: dosage of antagonist which reduced the analgesic effect of meperidine by approximately 50 per cent): 3.9 mg/kg
- ED50 [3]: 9 mg/kg
- support of morphine addiction [4]: did not support morphine addiction
- analgesia in human subjects ([5]; orally, 50mg./70 kg. and 100 mg./70 kg.): effective and satisfactory analgesia
- dose approximately equivalent to 10 mg. of morphine sulfate as an analgesic ([5]; parenterally in humans): ~20 mg
- analgesia in human subjects ([5]; parenterally, 10 mg./70 kg. and 60 mg./70 kg.): effective and satisfactory analgesia

SMILES: CC[C@]12CCN(CC=C(C)C)[C@@H](Cc3ccc(O)cc31)C2C (relative stereo) [7D (dextro trans), trans 1,2,3,4,5,6-hexahydro-3-(3-methyl-2-butenyl)-6-ethyl-11-methyl-8-hydroxy-2,6-methano-3-benzazocine]
- analgesic activity in D'Amour-Smith test ([6]; at 30 mg./kg.): inactive
- toxicity in D'Amour-Smith test ([6]; at 60 mg./kg.): toxic
- maximum degree of antagonism ([2]; at 1.25 mg./kg.): 30%

SMILES: CC[C@]12CCN(CC=C(C)C)[C@@H](Cc3ccc(O)cc31)C2C (relative stereo) [7D (levo trans), trans 1,2,3,4,5,6-hexahydro-3-(3-methyl-2-butenyl)-6-ethyl-11-methyl-8-hydroxy-2,6-methano-3-benzazocine]
- ED50 in D'Amour-Smith test for analgesia [6]: 0.94 mg/kg
- maximum degree of antagonism ([2]; at 0.1 mg/kg.): 22%

SMILES: CC[C@]12CCN(CC=C(C)C)[C@H](Cc3ccc(O)cc31)[C@H]2C (relative stereo) [7D (racemic trans), trans 1,2,3,4,5,6-hexahydro-3-(3-methyl-2-butenyl)-6-ethyl-11-methyl-8-hydroxy-2,6-methano-3-benzazocine]
- ED50 ([6]; Rattus norvegicus): 1.4 mg/kg
- maximum degree of antagonism ([2]; at 0.1 mg/kg.): 50%
